The values that follow come from patent publication US10308617B2, “Triazole benzamide derivatives and the compositions and methods of treatment regarding the same” (An2H Discovery Limited, priority 2016, dated 2019).

SMILES strings stand for the structures.

The target of the first assay is T1, Parkin ligase (Homo sapiens, UniProt O60260).
T1 sequence (O60260 1-465): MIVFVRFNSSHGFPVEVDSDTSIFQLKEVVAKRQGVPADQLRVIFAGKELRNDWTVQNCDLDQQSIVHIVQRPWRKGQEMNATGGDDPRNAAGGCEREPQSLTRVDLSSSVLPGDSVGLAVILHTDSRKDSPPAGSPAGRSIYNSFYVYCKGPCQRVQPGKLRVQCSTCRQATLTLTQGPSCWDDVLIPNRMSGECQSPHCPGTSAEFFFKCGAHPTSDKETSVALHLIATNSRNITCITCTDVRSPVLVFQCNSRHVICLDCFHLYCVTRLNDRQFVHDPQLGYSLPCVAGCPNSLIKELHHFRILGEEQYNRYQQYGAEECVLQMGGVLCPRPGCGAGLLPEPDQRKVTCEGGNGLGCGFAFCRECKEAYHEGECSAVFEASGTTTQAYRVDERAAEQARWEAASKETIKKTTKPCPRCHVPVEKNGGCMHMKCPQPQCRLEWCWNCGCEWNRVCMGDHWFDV
The assay can be described thus: Activity-Based Probe Assay using an Ubiquitin vinyl sulfone probe (TR-FRET). The format is biochemical.
Conditions: not given
As to the method: An Ubiquitin vinyl sulfone probe can be used that irreversibly binds to the active site cysteine of Parkin ligase. Covalent attachment of the probe to the Parkin can be monitored by TR-FRET. Candidate activator compounds can be identified by increasing the activity of Parkin ligase due to an increase in TR-FRET signal. Screening for activating compounds can be distinguished from the controls as follows: • 100% activation signal=Heat activated Parkin+100 nM control activator in DMSO. • 0% activation signal=Heat activated Parkin+DMSO only. • Parkin activators can be identified by an increase of the 0% activation signal TR-FRET signal.
• Assay Plate: White 384 well plate (Corning 3572) • Enzyme: Parkin-His tagged 203 μM (10.5 mg/ml) • Probe: Ubiquitin vinyl-sulfone (HA-Ub-VS Boston Biochem U-212) • DMSO: DMSO (Sigma cat # D4540-100ML) • Reaction Buffer: 50 mM HEPES (pH 8.5), 150 mM NaCl, 0.01% Tween 20, 0.1% BSA • Detection Buffer: 50 mM HEPES (pH 8.5), 150 mM NaCl, 0.01% Tween 20, 0.1% BSA, 800 mM KF • Detection Reagent A: 2.6 nM Anti-6HIS-Eu cryptate and 40 nM Anti-HA-XL665 in detection buffer • Eu cryptate: Anti-6HIS-Eu cryptate (CisBio 61HISKLA) • XL665: Anti-HA-XL665 (CisBio 610HAXLA) Enzyme Reaction (15 min pre incubation Parkin with activator only) • Parkin: 40 nM • HA-Ub-VS Probe: 70 nM • Activator/DMSO: 2× Activator/2% DMSO • Reaction time: 60 minutes • Temperature: 22° C. • Total volume: 10 μl reaction Detection Reaction • Take 10 μl of Enzyme Reaction above and add 10 μl detection Reagent A under the following conditions: • Reaction time: 60 minutes • Temperature: 22° C. • Total volume: 20 μl
Assay procedure (Using HP D-300 compound dispenser and Bravo for the operation): • 1) Heat activate Parkin in reaction buffer (500 μl/1.5 ml tube: Eppendorf Thermomixer 5 minutes, 400 rpm at 58° C. and put on ice until needed). • 2) Load assay plate wells with 4.8 μl 84.5 nM Parkin in reaction buffer by use of Bravo. • 3) Deliver 0.2 μl 200× activator candidates in DMSO by use of HP D-300 compound dispenser. Highest 200× concentration=[…] and then twofold dilutions. • 4) Spin 1000 rpm, 2 minutes, at room temp. • 5) Incubate plate for 15 minutes at room temp. • 6) Add 5 μl 140 nM HA-Ub-VS Probe in reaction buffer by use of Bravo. • 7) Spin 1000 rpm, 2 minutes, at room temp. • 8) Incubate plate for 60 minutes at room temp. • 9) Add 10 μl 2.6 nM Anti-6HIS-Eu cryptate and 40 nM Anti-HA-XL665 in detection buffer. • 10) Spin 1000 rpm, 2 minutes, at room temp. • 11) Incubate plate for 60 minutes at room temp. • 12) Read plates on Perkin Elmer Envision instrument with the following parameters: • LANCE dual laser protocol loaded into the Envision® software • Top Mirror: LANCE/DELFIA Duel/Bias (Bar code 446) • Emission Filter: APC 665 EM (Bar code 205) • 2nd Emission Filter: Europium 615 EM (Bar code 203) • Read 655 nm (channel 1) and 615 nm (channel 2) wavelengths on Envision®
Data Analysis: The Data can be read in CSV files. There are two tables in those CSV files, which are the values of 655 nm (channel 1) and 615 nm (channel 2) wavelengths respectively. The data is converted to an HTRF Ratio=(Channel 1/Channel 2)*10,000
The average of all the 0 uM controls (DMSO only)=BKGD (Background—0% activation). Subtract BKGD from each HTRF Ratio value=HTRF-BKGD. The average of all the […] 100 nM control activator in DMSO controls=Max (100% activation). The following equation is then used to calculate % Activation for each well/candidate as follows: % Activation=(HTRF-BKGD/Max)*100.
Graphpad Prisim was used with Transform X values: X=Log(X) and nonlinear regression (dose-response-stimulation): Log(agonist) vs Response—variable slope (four parameters) with constrains set to Bottom=0 and Top=100.
The Activity-Based Probe Assay was performed with various compounds in Tables 1-3.
Turning to `O=C(Nc1nc(NC(=O)c2ccccc2)n(-c2ccccc2)n1)c1ccccc1` [Compound A, N,N′-(1-phenyl-1H-1,2,4-triazole-3,5-diyl)dibenzamide], the “Parkin Ligase reaction with the Activity-based Ubiquitin vinyl sulfone probe” value is “increases”.

The assay is the same for the next values; noted with them: Parkin activation, HA-Ub-VS probe, heat activated Parkin; read-out: Probe Assay EC50 (μM) [Example 2].
Turning to `O=C(Nc1nc(NC(=O)c2cccc([N+](=O)[O-])c2)n(-c2ccccc2)n1)c1ccccc1` [Compound V1], the 50% effective concentration (EC50) is above 100 µM.

On to `CC(=O)Nc1nc(NC(C)=O)n(-c2ccccc2)n1` [Compound B], for which the EC50 is above 100 µM.

Consider `O=C(Nc1nc(NC(=O)c2cccs2)nn1-c1ccccc1)c1ccccc1` [Compound G2], for which the EC50 was determined as 2 µM.

Regarding `O=C(Nc1nc(NC(=O)c2ccco2)n(-c2ccccc2)n1)c1ccccc1` [Compound W1], the EC50 is 10.4 µM.

On to `C=CC(=O)Nc1nc(NC(=O)c2ccccc2)nn1-c1ccccc1` [Compound L2], for which the EC50 was above 100 µM.

Take `Cc1ccccc1C(=O)Nc1nc(-c2ccccn2)nn1-c1ccc(OC(F)(F)F)cc1` [Compound H3]: the EC50 came to 3 µM.

Take `CCN(CC)c1cc(Nc2nc(NC(=O)c3ccccc3)nn2-c2ccccc2)ncn1` [Compound F1]: the EC50 is above 100 µM.

With `O=C(Nc1nc(NC(=O)c2nc3ccccc3s2)n(-c2ccccc2)n1)c1ccccc1` [Compound M2], the EC50 was above 100 µM.

Turning to `CCN(CC)c1nc(Nc2nc(NC(=O)c3ccccc3)nn2-c2ccccc2)nc2ccccc12` [X], the EC50 was above 100 µM.

`O=C(/C=C/c1ccccc1)Nc1nc(NC(=O)c2ccccc2)nn1-c1ccccn1` [Compound U1]: the EC50 came out at 25.9 µM.

Take `O=C(Nc1nc(NC(=O)c2ccccc2)n(-c2ccc(OC(F)(F)F)cc2)n1)c1ccccc1` [Compound Z1]: the EC50 was 1 µM.

With `O=C(Nc1nc(-c2ccccn2)nn1-c1ccccc1)c1ccccc1` [Compound Y1, N-(1-phenyl-3-(pyridin-2-yl)-1H-1,2,4-triazol-5-yl)benzamide], the EC50 amounted to 2 µM.

In the case of `O=C(Nc1nc(NC(=O)c2ccccc2)n(-c2cccc3ncccc23)n1)c1ccccc1` [Compound P2], the EC50 was above 100 µM.

Regarding `C/C=C/C(=O)Nc1nc(Nc2ncnc3ccccc23)n(-c2ccccc2)n1` [Compound L1], the EC50 was found to be 37 µM.

In the case of `Nc1nc(Nc2nc(NC(=O)c3ccccc3)nn2-c2ccccc2)nc2ccccc12` [Compound N1], the EC50 is above 100 µM.

For `O=C(Nc1nc(NC(=O)c2ccccc2)n(-c2ccc(-c3ccccc3)cc2)n1)c1ccccc1` [Compound X1], the concentration giving a half-maximal response (EC50) was 62 µM.

As for `O=C(Nc1nc(NC(=O)c2ccccc2)n(-c2ccc(I)cc2)n1)c1ccccc1` [Compound E, N-[5-benzamido-1-(4-iodophenyl)-1,2,4-triazol-3-yl]benzamide], the EC50 was 15.3 µM.

In the case of `O=C(Nc1nc(Nc2ccncn2)n(-c2ccccc2)n1)c1ccccc1` [Compound H1], the EC50 is above 100 µM.

Take `O=C(Nc1nc(NC(=O)c2ccccc2)n(-c2ccccc2)n1)c1ccccc1` [Compound A, N,N′-(1-phenyl-1H-1,2,4-triazole-3,5-diyl)dibenzamide]: the EC50 came to 7 µM.

Turning to `CN(C(=O)c1ccccc1)c1nc(NC(=O)c2ccccc2)nn1-c1ccccc1` [V], the EC50 was above 100 µM.

Consider `CN(C(=O)c1ccccc1)c1nc(NC(=O)c2ccccc2)n(-c2ccccc2)n1` [G], for which the 50% effective concentration (EC50) is above 100 µM.

As to `O=C(Nc1nc(NC(=O)c2ccc(I)cc2)n(-c2ccccc2)n1)c1ccc(I)cc1` [D], the EC50 is above 100 µM.

As for `O=C(Nc1nc(-c2ccccn2)nn1-c1ccccc1)c1ccccc1` [T], the EC50 was above 100 µM.

For the compound `O=C(Nc1nc(NC(=O)c2ccccc2)n(-c2ccc3ccccc3n2)n1)c1ccccc1` [Compound D2], the EC50 was 89 µM.

With `Cc1ccccc1C(=O)Nc1nc(-c2ncccc2C)nn1-c1ccccc1` [Compound S3, 2-methyl-N-(3-(3-methylpyridin-2-yl)-1-phenyl-1H-1,2,4-triazol-5-yl)benzamide], the EC50 worked out at 3 µM.

Turning to `O=C(Nc1nc(Nc2cc(N3CCCC3)ncn2)n(-c2ccccc2)n1)c1ccccc1` [Compound G1], the EC50 was above 100 µM.

As to `CCN(CC)c1nc(Nc2nc(NC(=O)c3ccccc3)nn2-c2ccccc2)c2ccccc2n1` [W], the EC50 was above 100 µM.

Consider `Cc1ccccc1C(=O)Nc1nc(NC(=O)c2ccccc2)n(-c2ccccc2)n1` [Compound H], for which the EC50 is above 100 µM.

In the case of `Cc1ccccc1C(=O)Nc1nc(NC(=O)c2cccs2)nn1-c1ccccc1` [Compound K2], the concentration giving a half-maximal response (EC50) amounted to 6 µM.

`O=C(Nc1nc(Nc2nc(N3CCCC3)c3ccccc3n2)n(-c2ccccc2)n1)c1ccccc1` [Compound B1]: the EC50 was above 100 µM.

As to `Cc1ccccc1-n1nc(NC(=O)c2ccccc2)nc1NC(=O)c1ccccc1` [M], the concentration for a half-maximal effect (EC50) was above 100 µM.

As to `O=C(Nc1nc(NC(=O)c2ccccc2)n(-c2ccc3c(c2)OCCO3)n1)c1ccccc1` [Compound E2], the EC50 turned out to be 6 µM.

As to `O=C(Nc1nc(Nc2cc(N3CCCC3)nc3ccccc23)n(-c2ccccc2)n1)c1ccccc1` [Compound A1], the EC50 is above 100 µM.

Take `O=C(Nc1nc(Nc2nc(O)nc3ccccc23)n(-c2ccccc2)n1)c1ccccc1` [Compound E1]: the EC50 is above 100 µM.

In the case of `Cc1ccccc1C(=O)Nc1nc(-c2cccnc2)nn1-c1ccccc1` [Compound T2], the EC50 was above 100 µM.

Consider `O=C(Nc1nc(Nc2ncnc3ccccc23)n(-c2ccccc2)n1)c1cccs1` [Compound C1], for which the EC50 came to 3.7 µM.

For `Cc1ccccc1C(=O)Nc1nc(NC(=O)c2ccccc2)nn1-c1ccccc1` [Compound K, N-(5-benzamido-2-phenyl-1,2,4-triazol-3-yl)-2-methyl-benzamide], the EC50 stood at 10.8 µM.

Consider `O=C(Nc1nc(Nc2nccc3ccccc23)n(-c2ccccc2)n1)c1ccccc1` [U], for which the EC50 was above 100 µM.

On to `c1ccc(-n2nc(-c3ccccn3)nc2Nc2ncnc3ccccc23)cc1` [Compound U2], for which the EC50 turned out to be 22 µM.

Take `CC(C)C(=O)Nc1nc(Nc2ncnc3ccccc23)n(-c2ccccc2)n1` [Compound K1]: the EC50 was determined as 9.2 µM.

For the compound `Cc1ccccc1C(=O)Nc1nc(NC(=O)c2ccccc2C)n(C(C)C)n1` [Compound W2], the 50% effective concentration (EC50) is above 100 µM.

Consider `C=C(C)C(=O)Nc1nc(Nc2ncnc3ccccc23)n(-c2ccccc2)n1` [Compound M1], for which the EC50 is 11.9 µM.

With `O=C(Nc1nc(Nc2ncnc3ccccc23)n(-c2ccccc2)n1)c1ccco1` [Z], the EC50 worked out at 9.1 µM.

Consider `O=C(Nc1nc(Nc2nc(O)c3ccccc3n2)n(-c2ccccc2)n1)c1ccccc1` [Compound O1], for which the EC50 stood at 12.8 µM.

As for `O=C(Nc1nc(NC(=O)c2ccccc2)n(-c2cccc3cccnc23)n1)c1ccccc1` [Compound O2], the EC50 was above 100 µM.

What is called EC50 is the midpoint of the concentration-response curve.
